Measurements taken from US20240409585A1, “MACROCYCLIC IMMUNOMODULATORS” (priority 2021, published 2024).
Numbered stars: 1 amine (or outer) side, 2 acyl side, 3 side chain; on linkers, the order of the positions; unused ones are H or OH. Bridge positions count the residues as written; N and C are the ends. Square brackets hold non-standard residues; d marks the D form. Peptide text beside a SMILES is read from it. * marks the point of attachment. X26 = O=C([C@H](Cc1ccc(-c2cccc(S(=O)(=O)N3CCOCC3)c2)cc1)N[*:1])[*:2]; X51 = O=C([C@H](Cc1cccc(-c2cccc(S(=O)(=O)N3CCOCC3)c2)c1)N[*:1])[*:2]; X45 = CNS(=O)(=O)c1cccc(-c2ccc(C[C@H](N[*:1])C(=O)[*:2])cc2)c1; Bip(4'-NHAc) = CC(=O)Nc1ccc(-c2ccc(C[C@H](N)C(=O)O)cc2)cc1; X20 = CC(NC[C@H](N[*:1])C(=O)[*:2])=C1C(=O)CC(C)(C)CC1=O; X17 = Nc1ccc(-c2cccc(C[C@H](N[*:1])C(=O)[*:2])c2)cn1; X52 = Nc1ccc(-c2ccc(C[C@H](N[*:1])C(=O)[*:2])cc2)cn1; Phe(3-CF3) = N[C@@H](Cc1cccc(C(F)(F)F)c1)C(=O)O; Ala(morpholin-4-yl) = N[C@@H](CN1CCOCC1)C(=O)O; Phe(4-CONH2) = NC(=O)c1ccc(C[C@H](N)C(=O)O)cc1; Phe(4-COOH) = N[C@@H](Cc1ccc(C(=O)O)cc1)C(=O)O; Bip = N[C@@H](Cc1ccc(-c2ccccc2)cc1)C(=O)O; Phe(3-Me) = Cc1cccc(C[C@H](N)C(=O)O)c1; Abu(3S-NH2) = C[C@H](N)[C@H](N)C(=O)O; Cha = N[C@@H](CC1CCCCC1)C(=O)O; Carboxymethyl = O=C(O)C*; NMeA = CN[C@@H](C)C(=O)O; Orn = NCCC[C@H](N)C(=O)O; Dab = NCC[C@H](N)C(=O)O

What follows are molecules tested against T1, Alexa fluor-647 labeled human PD-L1-Ig binding to Jurkat cell line over-expressing human PD-1 (Homo sapiens, UniProt Q15116) (assay: Jurkat-PD-1 Cell Binding High-Content Screening Assay (CBA): Method 3 (Alexa fluor-647 labeled PD-L1-Ig)). Details: Jurkat-PD-1 cells, Alexa fluor-647 labeled PD-L1-Ig 177 nM; head μM; read-out: CBA Method 3 μM.
T1 construct: expressed in transfected cells; host or cells: Jurkat
Method: Jurkat-PD-1 Cell Binding High-Content Screening Assay (CBA): Method 3
Alexa fluor-647 was covalently linked to the Ig epitope tag of human PD-L1-Ig and fluorescently labeled PD-L1-Ig was used for the binding studies with a Jurkat cell line over-expressing human PD-1. Briefly, 2.5×10^4 Jurkat-hPD-1 cells were seeded into 384 well plates in 20 μl of RPMI supplemented with 10% fetal calf serum. 12.5 nl of compound was added to cells followed by incubation at 37° C. for 2 hours. Then, 10 ul of Alexa fluor-647 labeled PD-L1-Ig (177 nM final), diluted in RPMI supplemented with 10% fetal calf serum was added to the cells and incubated for 1 hour. Cells were then fixed with 4% paraformaldehyde containing 10 μg/ml Hoechst 33342 and then washed 3× in 100 ul PBS and 100 ul of PBS was added in the final step. Data was collected using the Operetta High Content Imager and the data was analyzed using the columbus software.

T1 sequence (Q15116 25-288): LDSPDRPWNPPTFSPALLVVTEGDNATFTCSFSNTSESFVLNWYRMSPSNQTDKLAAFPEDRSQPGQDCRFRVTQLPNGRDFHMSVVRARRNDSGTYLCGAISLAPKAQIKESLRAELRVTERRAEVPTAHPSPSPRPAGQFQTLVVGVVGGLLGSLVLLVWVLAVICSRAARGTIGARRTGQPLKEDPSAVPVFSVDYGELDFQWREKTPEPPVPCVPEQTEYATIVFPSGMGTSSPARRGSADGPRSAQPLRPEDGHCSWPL

| IC50 | SMILES |
| --- | --- |
| 0.38 µM | Cc1cccc(C[C@@H]2NC(=O)[C@H](CC(=O)O)NC(=O)[C@H](Cc3ccc(OCC(=O)O)cc3)NC(=O)[C@H](CN3CCOCC3)NC(=O)CSC[C@@H](C(=O)N[C@@H](CCN)C(N)=O)NC(=O)[C@H](CCCN)NC(=O)[C@H](C(C)C)NC(=O)[C@H](CC3CCCCC3)NC(=O)[C@H](CCN)NC(=O)[C@@H](CC(C)C)NC(=O)[C@H](C)N(C)C(=O)[C@H](CCC(N)=O)NC(=O)[C@H](Cc3ccc(-c4ccccc4)cc3)NC(=O)[C@H](Cc3cccc(-c4ccc(N)nc4)c3)NC2=O)c1 [Example 5103] ({CH2CO}-[Ala(morpholin-4-yl)]Y(Carboxymethyl)D[Phe(3-Me)][X17][Bip]Q[NMeA][dL][Dab][Cha]V[Orn]C[Dab]-NH2; thioether N-14) |
| 0.05 µM | Cc1cccc(C[C@@H]2NC(=O)[C@H](CC(=O)O)NC(=O)[C@H](Cc3ccc(OCC(=O)O)cc3)NC(=O)[C@H](CN3CCOCC3)NC(=O)CSC[C@@H](C(=O)N[C@@H](CCN)C(N)=O)NC(=O)[C@H](CCCN)NC(=O)[C@H](C(C)C)NC(=O)[C@H](CC3CCCCC3)NC(=O)[C@H](CCN)NC(=O)[C@@H](CC(C)C)NC(=O)[C@H](C)N(C)C(=O)[C@H](CCC(N)=O)NC(=O)[C@H](Cc3ccc(-c4ccccc4)cc3)NC(=O)[C@H](Cc3ccc(-c4ccc(N)nc4)cc3)NC2=O)c1 [Example 5104] ({CH2CO}-[Ala(morpholin-4-yl)]Y(Carboxymethyl)D[Phe(3-Me)][X52][Bip]Q[NMeA][dL][Dab][Cha]V[Orn]C[Dab]-NH2; thioether N-14) |
| 0.02 µM | CC(NC[C@@H]1NC(=O)[C@H](Cc2ccc(C(=O)O)cc2)NC(=O)[C@H](CN2CCOCC2)NC(=O)CSC[C@@H](C(=O)N[C@@H](CCN)C(N)=O)NC(=O)[C@H](CCCN)NC(=O)[C@H](C(C)C)NC(=O)[C@H](CC2CCCCC2)NC(=O)[C@H](CCN)NC(=O)[C@@H](CC(C)C)NC(=O)[C@H](C)N(C)C(=O)[C@H](CCC(N)=O)NC(=O)[C@H](Cc2ccc(-c3ccccc3)cc2)NC(=O)[C@H](Cc2ccc(C(=O)O)cc2)NC(=O)[C@H](Cc2cccc(C(F)(F)F)c2)NC1=O)=C1C(=O)CC(C)(C)CC1=O [Example 5105] ({CH2CO}-[Ala(morpholin-4-yl)][Phe(4-COOH)][X20][Phe(3-CF3)][Phe(4-COOH)][Bip]Q[NMeA][dL][Dab][Cha]V[Orn]C[Dab]-NH2; thioether N-14) |
| 0.06 µM | Cc1cccc(C[C@@H]2NC(=O)[C@H](CC(=O)O)NC(=O)[C@H](Cc3ccc(OCC(=O)O)cc3)NC(=O)[C@H](CN3CCOCC3)NC(=O)CSC[C@@H](C(=O)N[C@@H](CCN)C(N)=O)NC(=O)[C@H](CCCN)NC(=O)[C@H](C(C)C)NC(=O)[C@H](CC3CCCCC3)NC(=O)[C@H](CCN)NC(=O)[C@@H](CC(C)C)NC(=O)[C@H](C)N(C)C(=O)[C@H](CCC(N)=O)NC(=O)[C@H](Cc3ccc(-c4ccccc4)cc3)NC(=O)[C@H](Cc3cccc(-c4cccc(S(=O)(=O)N5CCOCC5)c4)c3)NC2=O)c1 [Example 5106] ({CH2CO}-[Ala(morpholin-4-yl)]Y(Carboxymethyl)D[Phe(3-Me)][X51][Bip]Q[NMeA][dL][Dab][Cha]V[Orn]C[Dab]-NH2; thioether N-14) |
| 0.33 µM | Cc1cccc(C[C@@H]2NC(=O)[C@H](CC(=O)O)NC(=O)[C@H](Cc3ccc(OCC(=O)O)cc3)NC(=O)[C@H](CN3CCOCC3)NC(=O)CSC[C@@H](C(=O)N[C@@H](CCN)C(N)=O)NC(=O)[C@H](CCCN)NC(=O)[C@H](C(C)C)NC(=O)[C@H](CC3CCCCC3)NC(=O)[C@H](CCN)NC(=O)[C@@H](CC(C)C)NC(=O)[C@H](C)N(C)C(=O)[C@H](CCC(N)=O)NC(=O)[C@H](Cc3ccc(-c4ccccc4)cc3)NC(=O)[C@H](Cc3ccc(-c4cccc(S(=O)(=O)N5CCOCC5)c4)cc3)NC2=O)c1 [Example 5107] ({CH2CO}-[Ala(morpholin-4-yl)]Y(Carboxymethyl)D[Phe(3-Me)][X26][Bip]Q[NMeA][dL][Dab][Cha]V[Orn]C[Dab]-NH2; thioether N-14) |

Same assay, conditions: Jurkat-PD-1 cells, Alexa fluor-647 labeled PD-L1-Ig 177 nM; nM; read-out: CBA Method 3

| IC50 | SMILES |
| --- | --- |
| 0.0073 µM | CNS(=O)(=O)c1cccc(-c2ccc(C[C@@H]3NC(=O)[C@H](Cc4cccc(C)c4)NC(=O)[C@H](CC(=O)O)NC(=O)[C@H](Cc4ccc(OCC(=O)O)cc4)NC(=O)[C@H](CN4CCOCC4)NC(=O)CSC[C@@H](C(=O)N[C@@H](CCN)C(N)=O)NC(=O)[C@H](CCCN)NC(=O)[C@H](C(C)C)NC(=O)[C@H](CC4CCCCC4)NC(=O)[C@H](CCN)NC(=O)[C@@H](CC(C)C)NC(=O)[C@H](C)N(C)C(=O)[C@H](CCC(N)=O)NC(=O)[C@H](Cc4ccc(-c5ccccc5)cc4)NC3=O)cc2)c1 [Example 5108] ({CH2CO}-[Ala(morpholin-4-yl)]Y(Carboxymethyl)D[Phe(3-Me)][X45][Bip]Q[NMeA][dL][Dab][Cha]V[Orn]C[Dab]-NH2; thioether N-14) |
| 0.0044 µM | CC(=O)Nc1ccc(-c2ccc(C[C@@H]3NC(=O)[C@H](Cc4cccc(C(F)(F)F)c4)NC(=O)[C@H](CC(=O)O)NC(=O)[C@H](Cc4ccc(C(=O)O)cc4)NC(=O)[C@H]([C@H](C)N)NC(=O)CSC[C@@H](C(=O)N[C@@H](CCN)C(N)=O)NC(=O)[C@H](CC(N)=O)NC(=O)[C@H](C(C)C)NC(=O)[C@H](CC4CCCCC4)NC(=O)[C@H](CCN)NC(=O)[C@@H](CC(C)C)NC(=O)[C@H](C)N(C)C(=O)[C@H](Cc4ccc(C(N)=O)cc4)NC(=O)[C@H](Cc4ccc(-c5ccccc5)cc4)NC3=O)cc2)cc1 [Example 5109] ({CH2CO}-[Abu(3S-NH2)][Phe(4-COOH)]D[Phe(3-CF3)][Bip(4'-NHAc)][Bip][Phe(4-CONH2)][NMeA][dL][Dab][Cha]VNC[Dab]-NH2; thioether N-14) |
| 0.0088 µM | CC(=O)Nc1ccc(-c2ccc(C[C@@H]3NC(=O)[C@H](Cc4cccc(C(F)(F)F)c4)NC(=O)[C@H](CC(=O)O)NC(=O)[C@H](Cc4ccc(C(N)=O)cc4)NC(=O)[C@H]([C@H](C)N)NC(=O)CSC[C@@H](C(=O)N[C@@H](CCN)C(N)=O)NC(=O)[C@H](CC(N)=O)NC(=O)[C@H](C(C)C)NC(=O)[C@H](CC4CCCCC4)NC(=O)[C@H](CCN)NC(=O)[C@@H](CC(C)C)NC(=O)[C@H](C)N(C)C(=O)[C@H](Cc4ccc(C(N)=O)cc4)NC(=O)[C@H](Cc4ccc(-c5ccccc5)cc4)NC3=O)cc2)cc1 [Example 5110] ({CH2CO}-[Abu(3S-NH2)][Phe(4-CONH2)]D[Phe(3-CF3)][Bip(4'-NHAc)][Bip][Phe(4-CONH2)][NMeA][dL][Dab][Cha]VNC[Dab]-NH2; thioether N-14) |
| 0.0047 µM | CC(=O)Nc1ccc(-c2ccc(C[C@@H]3NC(=O)[C@H](Cc4cccc(C(F)(F)F)c4)NC(=O)[C@H](CC(=O)O)NC(=O)[C@H](Cc4ccc(C(=O)O)cc4)NC(=O)[C@H](CN4CCOCC4)NC(=O)CSC[C@@H](C(=O)N[C@@H](CCN)C(N)=O)NC(=O)[C@H](CC(N)=O)NC(=O)[C@H](C(C)C)NC(=O)[C@H](CC4CCCCC4)NC(=O)[C@H](CCN)NC(=O)[C@@H](CC(C)C)NC(=O)[C@H](C)N(C)C(=O)[C@H](CCCN)NC(=O)[C@H](Cc4ccc(-c5ccccc5)cc4)NC3=O)cc2)cc1 [Example 5111] ({CH2CO}-[Ala(morpholin-4-yl)][Phe(4-COOH)]D[Phe(3-CF3)][Bip(4'-NHAc)][Bip][Orn][NMeA][dL][Dab][Cha]VNC[Dab]-NH2; thioether N-14) |
